Assay results: ChEMBL document CHEMBL4483862, “Open-source discovery of chemical leads for next-generation chemoprotective antimalarials” (2018)

Tested on: Plasmodium berghei
Assay: Luciferase/luciferin-expressing antifolate-resistant parasites were used to infect a culture of HepG2 cells that were pre-incubated with compounds. Infected hepatocytes emit light due to the luciferase reaction. Assay results are presented as the percent inhibition of light emission compared to control. […]
Assay type: functional
Settings: sporozoite; for IC90: read-out: LUCIFERASE INFECTION ASSAY - IC90

SMILES | IC90 [µM] | also measured
CC(C)(C)c1ccc(-c2cnc3cnc(-c4ccc(N)nc4)cn23)cc1 | 4.41 | IC50 (PBLUC_HILL_SLOPE 8.01, PBLUC_R_SQUARED 0.801, read-out: LUCIFERASE INFECTION ASSAY - IC50): 3.35 µM
CN(C)C(=O)c1ccc(-c2cnc3cnc(-c4ccccc4Oc4ccccc4)cn23)cc1 | 3.65 | IC50 (PBLUC_HILL_SLOPE 8.03, PBLUC_R_SQUARED 0.291, read-out: LUCIFERASE INFECTION ASSAY - IC50): 2.77 µM
CS(=O)(=O)Nc1cccc(-c2cnc3ccc(Cc4ccc(F)cc4)nn23)c1 | 5.12 | IC50 (PBLUC_HILL_SLOPE 7.81, PBLUC_R_SQUARED 0.241, read-out: LUCIFERASE INFECTION ASSAY - IC50): 3.87 µM
CCOC(=O)c1[nH]c(CN2CCN(c3ccccc3)CC2)c(C(=O)OCC)c1C | > 10 | IC50 (PBLUC_HILL_SLOPE 7.85, PBLUC_R_SQUARED 0.611, read-out: LUCIFERASE INFECTION ASSAY - IC50): 8.25 µM
CSc1sc(NC(=O)Nc2ccc(Cl)cc2)cc1S(=O)(=O)C(C)C | > 8.15 | IC50 (PBLUC_HILL_SLOPE 7.91, PBLUC_R_SQUARED 0.357, read-out: LUCIFERASE INFECTION ASSAY - IC50): 6.79 µM
O=C(Nc1nc(-c2c[nH]c3ccccc23)cs1)c1cc(=O)[nH]c2ccccc12 | > 10 | IC50 (PBLUC_HILL_SLOPE 7.71, PBLUC_R_SQUARED 0.559, read-out: LUCIFERASE INFECTION ASSAY - IC50): 9.23 µM
C(=N\c1ccccc1-n1cccc1)/c1cnc(-c2ccccc2)[nH]1 | > 10.6 | IC50 (PBLUC_HILL_SLOPE 8.03, PBLUC_R_SQUARED 0.709, read-out: LUCIFERASE INFECTION ASSAY - IC50): > 10.6 µM
COCCCN1C(=O)N(Cc2ccccc2)C(=O)C12CCN(CCC(C)c1ccc(C)o1)CC2 (stereo not given) | > 7.06 | IC50 (PBLUC_HILL_SLOPE 7.49, PBLUC_R_SQUARED 0.22, read-out: LUCIFERASE INFECTION ASSAY - IC50): 6.36 µM
C=CCN(CC=C)C(CNc1ccc2nnc(C(F)(F)F)n2n1)C(C)C (stereo not given) | > 10 | IC50 (PBLUC_HILL_SLOPE 8.1, PBLUC_R_SQUARED 0.171, read-out: LUCIFERASE INFECTION ASSAY - IC50): 8.34 µM
CN(C)C(=O)Oc1ccc2c(-c3ccccc3)cc(=O)oc2c1 | > 10.7 | IC50 (PBLUC_HILL_SLOPE 7.62, PBLUC_R_SQUARED 0.0613, read-out: LUCIFERASE INFECTION ASSAY - IC50): > 10.7 µM
NC(=O)C1CCN(c2cc(-c3nc4ccccc4s3)c3ccccc3n2)CC1 | > 10 | IC50 (PBLUC_HILL_SLOPE 7.92, PBLUC_R_SQUARED 0.452, read-out: LUCIFERASE INFECTION ASSAY - IC50): 8.36 µM
O=C(NCCOc1ccc2ccccc2c1)c1ccccc1O | > 10 | IC50 (PBLUC_HILL_SLOPE 7.72, PBLUC_R_SQUARED 0.601, read-out: LUCIFERASE INFECTION ASSAY - IC50): 9.34 µM
Cc1ccc(C(=O)OC(C)C(=O)N2CCCC2)cc1S(=O)(=O)N1CCCCC1 (stereo not given) | 1.37 | IC50 (PBLUC_HILL_SLOPE 7.98, PBLUC_R_SQUARED 0.937, read-out: LUCIFERASE INFECTION ASSAY - IC50): 1.04 µM
Cc1nn(-c2ccccc2)c(C)c1C(=O)ONC(=N)c1cccc(Cl)c1 | > 8.95 | IC50 (PBLUC_HILL_SLOPE 7.89, PBLUC_R_SQUARED 0.243, read-out: LUCIFERASE INFECTION ASSAY - IC50): 7.68 µM
O=C(CSc1ccccc1)Nc1nc2ccccn2c1C(=O)NC1CCCC1 | > 8.37 | IC50 (PBLUC_HILL_SLOPE 8.28, PBLUC_R_SQUARED 0.442, read-out: LUCIFERASE INFECTION ASSAY - IC50): 7.37 µM
NNC(=S)c1cc(Cl)cc(Cl)c1 | 7.72 | IC50 (PBLUC_HILL_SLOPE 7.79, PBLUC_R_SQUARED 0.6, read-out: LUCIFERASE INFECTION ASSAY - IC50): 5.82 µM
CCC(CC)c1nn(CC(=O)c2cc(C)n(CCOC)c2C)c(=N)s1 | > 10 | IC50 (PBLUC_HILL_SLOPE 8.4, PBLUC_R_SQUARED 0.0548, read-out: LUCIFERASE INFECTION ASSAY - IC50): 9.17 µM
Fc1ccc(-c2nc(CSc3nc(NC4CC4)c4ccccc4n3)cs2)cc1 | 4.9 | IC50 (PBLUC_HILL_SLOPE 8, PBLUC_R_SQUARED 0.651, read-out: LUCIFERASE INFECTION ASSAY - IC50): 3.72 µM
Cc1sc2nc(-c3cccnc3)nc(N(C)Cc3cccnc3)c2c1C | 9.64 | IC50 (PBLUC_HILL_SLOPE 7.84, PBLUC_R_SQUARED 0.586, read-out: LUCIFERASE INFECTION ASSAY - IC50): 7.28 µM
CCCCCCN(C(=O)COC(=O)c1c(C)[nH]c(C2CC2)nc1=O)c1nc(-c2ccccc2)cs1 | 4.6 | IC50 (PBLUC_HILL_SLOPE 8.31, PBLUC_R_SQUARED 0.597, read-out: LUCIFERASE INFECTION ASSAY - IC50): 3.53 µM

SMILES | IC90 [µM] | also measured
CN(C)S(=O)(=O)c1ccc(SCC(=O)c2ccc(C(C)(C)C)cc2)nc1 | 5.05 | IC50 (PBLUC_HILL_SLOPE 8.24, PBLUC_R_SQUARED 0.558, read-out: LUCIFERASE INFECTION ASSAY - IC50): 3.87 µM
O=C(Nc1cccc(C(F)(F)F)c1)Nc1ccc2nc(-c3ccc(F)c(Cl)c3)nn2c1 | 5.2 | IC50 (PBLUC_HILL_SLOPE 7.54, PBLUC_R_SQUARED 0.257, read-out: LUCIFERASE INFECTION ASSAY - IC50): 3.88 µM
O=C(Cn1c(=O)oc2ccccc21)N1CCCC1c1nc2ccccc2s1 (stereo not given) | > 10 | IC50 (PBLUC_HILL_SLOPE 7.81, PBLUC_R_SQUARED 0.364, read-out: LUCIFERASE INFECTION ASSAY - IC50): 8.38 µM
CC(C)(NCC(=O)Nc1ccccc1C(N)=O)c1ccc2c(c1)OCO2 | > 10 | IC50 (PBLUC_HILL_SLOPE 7.96, PBLUC_R_SQUARED 0.17, read-out: LUCIFERASE INFECTION ASSAY - IC50): > 10 µM
COC(=O)c1cc(CNCC(O)COc2ccc(C(C)(C)CC(C)(C)C)cc2)ccc1OC (stereo not given) | 4.63 | IC50 (PBLUC_HILL_SLOPE 7.71, PBLUC_R_SQUARED 0.722, read-out: LUCIFERASE INFECTION ASSAY - IC50): 3.48 µM
COc1ccc(-c2cc([N+](=O)[O-])ccc2OCC(=O)NC(=O)NCCC(C)C)cc1 | > 10 | IC50 (PBLUC_HILL_SLOPE 8.25, PBLUC_R_SQUARED 0.103, read-out: LUCIFERASE INFECTION ASSAY - IC50): 9.42 µM
Cc1ccc(NC(=O)Nc2ccc3nc(-c4ccsc4)nn3c2)cc1 | > 10 | IC50 (PBLUC_HILL_SLOPE 7.59, PBLUC_R_SQUARED 0.413, read-out: LUCIFERASE INFECTION ASSAY - IC50): 8.75 µM
CNc1nc2cnc(Nc3ccc(OC(F)(F)F)cc3)cc2n1-c1cccc(C(F)(F)F)c1 | > 10 | IC50 (PBLUC_HILL_SLOPE 7.78, PBLUC_R_SQUARED 0.568, read-out: LUCIFERASE INFECTION ASSAY - IC50): 8 µM
CC(C)n1ncc2c(C(=O)N3CCN(CC(=O)N4CCCC4)CC3)cc(-c3ccccc3)nc21 | 5.42 | IC50 (PBLUC_HILL_SLOPE 8.22, PBLUC_R_SQUARED 0.426, read-out: LUCIFERASE INFECTION ASSAY - IC50): 4.15 µM
CCOC(=O)c1c(-c2csc(Nc3ccccn3)n2)c(C)n(CC)c1C | > 10 | IC50 (PBLUC_HILL_SLOPE 7.74, 2.96, PBLUC_R_SQUARED 0.584, 0.552, read-out: LUCIFERASE INFECTION ASSAY - IC50): 9.4 µM
O=C(Nc1nc2c(-c3ccccc3)c(C(F)(F)F)sc2s1)c1ccc(Cl)cc1 | > 7.52 | IC50 (PBLUC_HILL_SLOPE 7.81, PBLUC_R_SQUARED 0.676, read-out: LUCIFERASE INFECTION ASSAY - IC50): 6.32 µM
Cc1nnc(SCc2cc(=O)n3nc(C)c(-c4ccc(F)cc4)c3[nH]2)s1 | > 8.52 | IC50 (PBLUC_HILL_SLOPE 8.42, PBLUC_R_SQUARED 0.168, read-out: LUCIFERASE INFECTION ASSAY - IC50): 7.52 µM
O=C(Nc1ccccc1-c1nc(=O)c2ccccc2[nH]1)C12CC3CC(CC(C3)C1)C2 | > 10 | IC50 (PBLUC_HILL_SLOPE 7.56, PBLUC_R_SQUARED 0.487, read-out: LUCIFERASE INFECTION ASSAY - IC50): 9.01 µM
COC(=O)c1cc(CSc2nc3ccccc3c(=O)n2-c2ccc(OC)cc2)oc1C | > 10 | IC50 (PBLUC_HILL_SLOPE 8.32, PBLUC_R_SQUARED 0.0862, read-out: LUCIFERASE INFECTION ASSAY - IC50): > 10 µM
COc1ccc(Br)cc1/C=C/C(=O)c1ccc(OCC#N)cc1 | > 10 | IC50 (PBLUC_HILL_SLOPE 7.84, PBLUC_R_SQUARED 0.11, read-out: LUCIFERASE INFECTION ASSAY - IC50): 9.52 µM
COC(=O)c1ccc(NC(=O)c2ccc(-c3cccc(Br)c3)nc2C)s1 | > 10 | IC50 (PBLUC_HILL_SLOPE 7.52, PBLUC_R_SQUARED 0.673, read-out: LUCIFERASE INFECTION ASSAY - IC50): 9.09 µM
CC1(C)CC2CC(C)(CN2C(=O)CN2CCN(c3cccc(C(F)(F)F)c3)CC2)C1 (stereo not given) | > 10 | IC50 (PBLUC_HILL_SLOPE 7.96, PBLUC_R_SQUARED 0.534, read-out: LUCIFERASE INFECTION ASSAY - IC50): 9.19 µM
CC(C)(C)c1ccc(-c2cnc3cnc(-c4cccnc4)cn23)cc1 | 5.11 | IC50 (PBLUC_HILL_SLOPE 7.55, PBLUC_R_SQUARED 0.755, read-out: LUCIFERASE INFECTION ASSAY - IC50): 3.82 µM
COc1ccc(-c2cnc3cnc(-c4cccc(C)c4C)cn23)cn1 | > 9.99 | IC50 (PBLUC_HILL_SLOPE 7.63, PBLUC_R_SQUARED 0.171, read-out: LUCIFERASE INFECTION ASSAY - IC50): 8.65 µM
Clc1ccc2c(NCc3ccccc3)ccnc2c1 | 4.19 | IC50 (PBLUC_HILL_SLOPE 8.08, PBLUC_R_SQUARED 0.339, read-out: LUCIFERASE INFECTION ASSAY - IC50): 3.19 µM
